{
  "source": "patent US20090131498A1",
  "about": "“Enantioselective Synthesis of Merrilactone and Its Analogs” (priority 2005, published 2009)",
  "origin": "cited, not measured here",
  "test_system": "neurite growth",
  "conditions": "described by Fukuyama et al. (ref. 3)",
  "data": [
    {"smiles": "C[C@@]12COC(=O)[C@]1(C)C1O[C@]3(C)[C@@H](O)C[C@]24OC(=O)C[C@]143", "note": "(stereo partly shown) [merrilactone A, Merrilactone A]", "values": [
      {"measurement": "activity in a neurite growth assay", "value": "promising activity"}
    ]}
  ]
}
